For the assay, the target named is glucose oxidase (GOX) (Aspergillus niger, UniProt P13006). Description: time-resolved fluorescence of protein-bound flavin. The assay is classed as binding. To be noted: 390-nm excitation.

The structures appear in SMILES notation.

glucose oxidase (GOX), sequence (P13006 23-605 limits assumed): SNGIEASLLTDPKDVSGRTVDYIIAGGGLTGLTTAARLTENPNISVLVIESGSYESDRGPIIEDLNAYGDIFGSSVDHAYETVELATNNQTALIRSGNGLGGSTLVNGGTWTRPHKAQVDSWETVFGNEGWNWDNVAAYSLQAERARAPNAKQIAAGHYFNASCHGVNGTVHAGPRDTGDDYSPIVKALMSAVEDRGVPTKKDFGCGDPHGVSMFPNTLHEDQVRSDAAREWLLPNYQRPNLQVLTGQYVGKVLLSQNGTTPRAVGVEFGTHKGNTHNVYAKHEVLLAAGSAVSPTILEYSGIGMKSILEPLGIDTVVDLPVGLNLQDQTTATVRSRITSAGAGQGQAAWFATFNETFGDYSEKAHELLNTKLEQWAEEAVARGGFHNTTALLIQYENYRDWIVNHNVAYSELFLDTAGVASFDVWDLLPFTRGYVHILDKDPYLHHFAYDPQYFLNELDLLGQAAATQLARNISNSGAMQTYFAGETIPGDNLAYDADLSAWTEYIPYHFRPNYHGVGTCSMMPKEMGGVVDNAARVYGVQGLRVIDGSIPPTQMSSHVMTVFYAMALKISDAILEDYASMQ

As for `Cc1cc2nc3c(=O)[nH]c(=O)nc-3n(C[C@H](O)[C@H](O)[C@H](O)COP(=O)(O)OP(=O)(O)OC[C@H]3O[C@@H](n4cnc5c(N)ncnc54)[C@H](O)[C@@H]3O)c2cc1C` [FADox], the “time-resolved fluorescence of protein-bound flavin (Kerr gate)” value is “The fluorescence decays of FADox and FADH^− in GOX measured under the same experimental conditions”.

As for `Cc1cc2c(cc1C)N(C[C@H](O)[C@H](O)[C@H](O)COP(=O)(O)OP(=O)(O)OC[C@H]1O[C@@H](n3cnc4c(N)ncnc43)[C@H](O)[C@@H]1O)c1[nH]c(=O)[nH]c(=O)c1N2` [FADH^−], the “time-resolved fluorescence of protein-bound flavin (Kerr gate)” value is “time-resolved fluorescence of FADH^− in GOX exhibits monophasic decay”.

These data come from publication PMC8872763 (Proceedings of the National Academy of Sciences of the …, 2022).
